Reference: US20220008425A1, “Pharmaceutical Composition for Treating B-Cell Lymphoma” (FUNDAN UNIVERSITY SHANGHAI CANER CENTER, priority 2018, published 2022)
Entries after “also recorded” stand apart in the source; their conditions may differ.

Experiments:
[1] = test system: acute promyelocytic leukemia (APL); conditions: APL patients; ATRA alone; cited from earlier work
[2] = test system: SOX2 in tumor tissues grown from NU-DUL-1-RCHO-Luc cells; assay: SOX2 immunohistochemical staining of tumor tissues from the transplantation model; assay type: in vivo, SCID mice; conditions: tumors from NU-DUL-1-RCHO-Luc cells; compared with saline control
Source text: Construction of a transplantation model: we transduced LY8-RCHO cells and NU-DUL-1-RCHO cells with lentiviruses overexpressing the firefly luciferase gene to generate stable cells expressing firefly luciferase, referred to as LY8-RCHO-Luc cells and NU-DUL-1-RCHO-Luc cells, respectively. 8-week-old female SCID mice were purchased from SLAC (Shanghai laboratory animal center). The LY8-RCHO-Luc cells and NU-DUL-1-RCHO-Luc cells were resuspended in PBS prior to intraperitoneal injection of 1.5×10^7 cells per mouse. After intraperitoneal injection of the LY8-RCHO-Luc cells, mice were randomized into 6 groups (7 mice in every group) and given saline, R-CHOP, duvelisib, abemaciclib, R-CHOP+duvelisib, and R-CHOP+abemaciclib, respectively. Mice inoculated with the NU-DUL-1-RCHO-Luc cells were randomly divided into 6 groups (7 mice in every group), and were given saline, R-CHOP, duvelisib, AZD4547, R-CHOP+duvelisib, and R-CHOP+AZD4547, respectively. […] Tumor growth was monitored by bioluminescence at day 50 and day 90 after inoculation. For in vivo luminescence imaging, D-luciferin (Promega, Madison, Wis.) was intraperitoneally injected into mice (150 mg/kg). […] Luminescence images were captured with an exposure time of 30 seconds and the signal intensity of the tumor was measured by using Bruker MI software. The survival time of each mouse was recorded. […]
Tumor tissues from patients or animal models were fixed with 4% formalin, embedded in paraffin and sectioned. […] Immunoreactivity was then detected by using a GTVision III immunohistochemical detection kit (GK500705; Gene Tech Inc., Shanghai, China) according to its instructions. Quantitative scoring of immunostaining for SOX2, p-AKT, CDK6, FGFR1 and FGFR2 was performed on three independent sections under the microscope, according to the formula: score=3 (strong positive)×percentage+2 (medium positive)×percentage+1 (weak positive)×percentage+0 (negative)×percentage.

NU-DUL-1-RCHO-Luc cells = assay: Transplantation model, bioluminescence tumor growth and survival; assay type: in vivo; conditions: SCID mice bearing NU-DUL-1-RCHO-Luc cells
Source text: Construction of a transplantation model: we transduced LY8-RCHO cells and NU-DUL-1-RCHO cells with lentiviruses overexpressing the firefly luciferase gene to generate stable cells expressing firefly luciferase, referred to as LY8-RCHO-Luc cells and NU-DUL-1-RCHO-Luc cells, respectively. 8-week-old female SCID mice were purchased from SLAC (Shanghai laboratory animal center). The LY8-RCHO-Luc cells and NU-DUL-1-RCHO-Luc cells were resuspended in PBS prior to intraperitoneal injection of 1.5×10^7 cells per mouse. After intraperitoneal injection of the LY8-RCHO-Luc cells, mice were randomized into 6 groups (7 mice in every group) and given saline, R-CHOP, duvelisib, abemaciclib, R-CHOP+duvelisib, and R-CHOP+abemaciclib, respectively. Mice inoculated with the NU-DUL-1-RCHO-Luc cells were randomly divided into 6 groups (7 mice in every group), and were given saline, R-CHOP, duvelisib, AZD4547, R-CHOP+duvelisib, and R-CHOP+AZD4547, respectively. The drug dosing method based on one course of clinical use is shown in Table 1; the R-CHOP regimen was clinically used to treat DLBCL, while duvelisib, abemaciclib, and AZD4547 were tested in clinical trials (associated NCT numbers are NCT02576275, NCT01739309, and […], respectively). Tumor growth was monitored by bioluminescence at day 50 and day 90 after inoculation. For in vivo luminescence imaging, D-luciferin (Promega, Madison, Wis.) was intraperitoneally injected into mice (150 mg/kg). After 10 minutes, the mice were anesthetized by intraperitoneal injection of pentobarbital (50 mg/kg) and then their bioluminescence intensity was examined by using an In Vivo MS FX PRO system (Bruker Corporation, Billerica, Mass.). Luminescence images were captured with an exposure time of 30 seconds and the signal intensity of the tumor was measured by using Bruker MI software. The survival time of each mouse was recorded. Surviving mice were euthanized and dissected 120 days after inoculation and no intraperitoneal tumors were found. Tumor tissue was collected from moribund mice and fixed with 4% formalin. All animal experiments were performed in strict accordance with the experiment protocol approved by the animal ethics committee of Shanghai school of medicine of Fudan university.

NU-DUL-1-RCHO cells [3] = assay: CDC assay (rituximab-mediated complement-dependent cytotoxicity); assay type: cell-based, human; conditions: pre-treated with inhibitor 24 hours, then rituximab and 20% NHS 2 hours
Description: We constructed LY8 cells and NU-DUL-1 cells that are resistant to rituximab-mediated complement-dependent cytotoxicity (CDC). Briefly, original LY8 (LY8-ORI) cells and original NU-DUL-1 (NU-DUL-1-ORI) cells were treated with rituximab containing 20% (v/v) of NHS (Roche, Basel, Switzerland) with a concentration of gradually increasing from 4 μg/mL to 32 μg/mL to construct drug-resistant cells. […] Cytolysis induced by CDC was evaluated by detection of positive cells stained with propidium iodide (PI) through fluorescence activated cell sorting (FACS).

[4] = test system: AKT phosphorylation, SOX2, FGFR1/2 and CSC-associated molecules in NU-DUL-1-RCHO cells; assay: Immunoblot analysis; assay type: cell-based, human
NU-DUL-1-RCHO cells [5] = conditions: 48 hours
Description: Further, we constructed LY8 and NU-DUL-1 cells resistant to chemotherapeutic drugs. Briefly, LY8-ORI and NU-DUL-1-ORI cells were treated with doxorubicin (Selleck Chemicals, Houston, Tex.) and vincristine (Selleck Chemicals, Houston, Tex.) at a clinical ratio of 50:1.4 by increasing the concentration. […] These cells were then treated with 2 μg/mL of 4-hydroperoxycyclophosphamide (4-HC) (Santa Cruz Biotechnology, Inc., Santa Cruz, Calif.) every 21 days for 3 cycles. The obtained CHO-resistant cells are referred to as LY8-CHO and NU-DUL-1-CHO, respectively. CHO-resistant cells were treated with doxorubicin, vincristine, and 4-HC every 22 days to maintain drug tolerance to CHO. […] To maintain RCHO resistance, LY8-RCHO cells and NU-DUL-1-RCHO cells were treated with 32 μg/mL of rituximab containing 20% (v/v) of NHS every 22 days, followed by treatment with doxorubicin, vincristine, and 4-HC. After 48 hours of treatment with doxorubicin, vincristine and 4-HC, drug resistance to CHO and RCHO was determined by a series of CCK-8 assays.
Cells were seeded in a 96-well plate at a density of 1×10^4/100 μL/well. Cells were pretreated with IPI-145, abemaciclib, AZD4547, PF-573228, R788, or saracatinib at increasing concentrations with or without CHO for 48 hours prior to performing CytoTox-Glo™ cytotoxicity assay. We performed cytotoxicity assay by using a CytoTox-Glo™ cytotoxicity assay kit (Promega Inc., Madison, Wis.) according to their instructions. Briefly, 50 μL of CytoTox-Glo™ cytotoxicity assay reagent was added to all wells, mixed by orbital shaking, and then incubated for 15 minutes at room temperature. Luminescence of experimental dead cells was detected with a Synergy HT microplate reader (BioTek, Biotek Winooski, Minn.), wherein 50 μL of lysate was added to all wells, mixed and incubated for 15 minutes at room temperature prior to detection of total luminescence. Cytotoxicity was calculated according to the following formula: Cytotoxicity (%)=Experimental dead cell luminescence/Total luminescence×100%.

NU-DUL-1-RCHO cells [6] = assay: Aldefluor analysis (ALDH1+ cells); assay type: cell-based, human
Description: ALDH1 is a selectable marker for a variety of normal and cancer stem cells, including hematopoietic stem cells. Therefore, we assessed the number of cancer stem cells in hematopoietic malignancies by detecting ALDH1 positive cells. As previously described, we used an ALDEFLUOR™ kit (StemCell Technologies, Vancouver, BC, CA) to detect populations with high ALDH1 activity. Briefly, 1×10^6 cells were suspended in 1 mL of assay buffer containing 1 μM of BAAA, a substrate of […]. Suspended cells were then equally divided into two samples, one as a negative control and the other as a test sample. To form the negative control, […] of DEAB, a specific ALDH inhibitor, was added to one equally-divided sample. Cells were then incubated at 37° C. for 30 minutes prior to flow cytometry analysis.

NU-DUL-1-RCHO cells [7] = assay: EdU cell proliferation assay; assay type: cell-based, human; conditions: 1 μM, time point (48 or 120 hours) not given
Description: RCHO-resistant DLBCL cells were pretreated with duvelisib, abemaciclib, or AZD4547 at a concentration of 1 μM for 48 or 120 hours prior to EdU assay. For 120 hours of the study, the medium was replaced with a fresh medium containing 1 μM of inhibitor at 48 hours. EdU cell proliferation assay was performed by using a cell-light EdU Apollo643 in vitro flow cytometry kit (RiboBio Inc., Guangzhou, China) according to its instructions. Next, we assayed EdU staining positive cells on a Cytomics FC500 MPL flow cytometer (Beckman Coulter, Brea, Calif.).

SMILES | complete remission rate [1] | SOX2 expression level in tumor tissue (IHC) [2] | tumor growth (total photon flux) (NU-DUL-1-RCHO-Luc cells; inhibitor combined with R-CHOP, dosing per Table 1) | survival time (NU-DUL-1-RCHO-Luc cells; inhibitor combined with R-CHOP, experiment ended at day 120) | survival time (NU-DUL-1-RCHO-Luc cells; regimen or inhibitor used alone, dosing per Table 1) | effect on resistance to R-mediated CDC (NU-DUL-1-RCHO cells [3]) | levels of CSC-associated molecules (OCT4, NANOG, KLF4, c-MYC, CD34, CD133) [4] | cytotoxicity (induction of cell death), inhibitor used alone (NU-DUL-1-RCHO cells [5]; inhibitor alone at increasing concentrations) | reversal of resistance to CHO (cytotoxicity of CHO), inhibitor co-treated with CHO (NU-DUL-1-RCHO cells [5]; inhibitor at increasing concentrations with CHO) | proportion of ALDH1+ cells (CSCs) (NU-DUL-1-RCHO cells [6]) | cell proliferation (EdU incorporation) (NU-DUL-1-RCHO cells [7])
CC1=C(/C=C/C(C)=C/C=C/C(C)=C/C(=O)O)C(C)(C)CCC1 [ATRA, all-trans retinoic acid] | about 85% |  |  |  |  |  |  |  |  |  | 
COc1cc(CCc2cc(NC(=O)c3ccc(N4C[C@@H](C)N[C@@H](C)C4)cc3)n[nH]2)cc(OC)c1 [AZD4547] |  | significantly reduced the expression levels of SOX2 compared with a saline control | completely inhibit tumor growth | prolong the survival time to the end of the experiment at day 120 | significantly prolonged the survival time | exacerbates resistance to R-mediated CDC | also reduced their levels but to a greatly reduced extent compared with duvelisib | negligible effect on induction of cell death; also recorded: only negligible cytotoxicity on drug-resistant cells | restored sensitivity of RCHO-resistant cells to CHO; also recorded: significantly enhanced cytotoxicity of CHO | significantly reduced ALDH1+ subpopulations in NU-DUL-1-RCHO cells, but to a greatly reduced extent compared with duvelisib | promoted proliferation of NU-DUL-1-RCHO cells due to involvement in inhibition of PI3K/AKT signaling, but to a lesser extent than PI3K inhibition
